Legend:
786-0 = experiment: NCI one-dose screen; format: cell-based; details: Homo sapiens; 786-0, 10 µM; read-out: Growth Percent
Method: (§1) For screening of anticancer properties, all the developed compounds were chosen by the (NCI) for in-vitro antitumor evaluation. The assay was carried out using 59 human cancer cell lines obtained from nine tumour subpanels (breast, ovarian, melanoma, leukaemia, renal, CNS, lung, prostate, and colon cancer cell lines). Compounds were assessed at a 10 µM concentration. […] Also, hybrids 4a, 4b, 4e, 4i and 4j produced significant anti-proliferative effect in several cancer cells, particularly in leukaemia (RPMI-8226) and colon (HCT116) cells with growth percent of 47.87, −14.59, −24.56, −24.42, −15.84, −9.74, −53.36, −10.26, −31.29, and −39.51%, respectively.
(§2) The method description for NCI anticancer screening is provided in detail in the standard NCI-60 testing protocol.

BT-549 = experiment: NCI one-dose screen; format: cell-based; details: Homo sapiens; BT-549, 10 µM; read-out: Growth Percent
Method: as §1, §2

CAKI-1 = experiment: NCI one-dose screen; format: cell-based; details: Homo sapiens; CAKI-1, 10 µM; read-out: Growth Percent
Method: as §1, §2

DU-145 = experiment: NCI one-dose screen; format: cell-based; details: Homo sapiens; DU-145, 10 µM; read-out: Growth Percent
Method: as §1, §2

EKVX = experiment: NCI one-dose screen; format: cell-based; details: Homo sapiens, read-out: Growth Percent
Method: as §1, §2

HT29 = experiment: NCI one-dose screen; format: cell-based; details: Homo sapiens, HT-29; HT29, 10 µM; read-out: Growth Percent
Method: as §1, §2

IGROV1 = experiment: NCI one-dose screen; format: cell-based; details: Homo sapiens, IGROV-1; IGROV1, 10 µM; read-out: Growth Percent
Method: as §1, §2

K-562 = experiment: NCI one-dose screen; format: cell-based; details: Homo sapiens, K562; K-562, 10 µM; read-out: Growth Percent
Method: as §1, §2

KM12 = experiment: NCI one-dose screen; format: cell-based; details: Homo sapiens; KM12, 10 µM; read-out: Growth Percent
Method: as §1, §2

MDA-MB-231/ATCC = experiment: NCI one-dose screen; format: cell-based; details: Homo sapiens, read-out: Growth Percent
Method: as §1, §2

MOLT-4 = experiment: NCI one-dose screen; format: cell-based; details: Homo sapiens; MOLT-4, 10 µM; read-out: Growth Percent
Method: as §1, §2

NCI-H226 = experiment: NCI one-dose screen; format: cell-based; details: Homo sapiens; NCI-H226, 10 µM; read-out: Growth Percent
Method: as §1, §2

OVCAR-3 = experiment: NCI one-dose screen; format: cell-based; details: Homo sapiens; OVCAR-3, 10 µM; read-out: Growth Percent
Method: as §1, §2

OVCAR-5 = experiment: NCI one-dose screen; format: cell-based; details: Homo sapiens; OVCAR-5, 10 µM; read-out: Growth Percent
Method: as §1, §2

OVCAR-8 = experiment: NCI one-dose screen; format: cell-based; details: Homo sapiens; OVCAR-8, 10 µM; read-out: Growth Percent
Method: as §1, §2

SF-539 = experiment: NCI one-dose screen; format: cell-based; details: Homo sapiens; SF-539, 10 µM; read-out: Growth Percent
Method: as §1, §2

SK-MEL-28 = experiment: NCI one-dose screen; format: cell-based; details: Homo sapiens; SK-MEL-28, 10 µM; read-out: Growth Percent
Method: as §1, §2

SK-MEL-2 = experiment: NCI one-dose screen; format: cell-based; details: Homo sapiens; SK-MEL-2, 10 µM; read-out: Growth Percent
Method: as §1, §2

SK-OV-3 = experiment: NCI one-dose screen; format: cell-based; details: Homo sapiens; SK-OV-3, 10 µM; read-out: Growth Percent
Method: as §1, §2

SN12C = experiment: NCI one-dose screen; format: cell-based; details: Homo sapiens, read-out: Growth Percent
Method: as §1, §2

SNB-19 = experiment: NCI one-dose screen; format: cell-based; details: Homo sapiens; SNB-19, 10 µM; read-out: Growth Percent
Method: as §1, §2

SNB-75 = experiment: NCI one-dose screen; format: cell-based; details: Homo sapiens; SNB-75, 10 µM; read-out: Growth Percent
Method: as §1, §2

SR = experiment: NCI one-dose screen; format: cell-based; details: Homo sapiens, read-out: Growth Percent
Method: as §1, §2

SW-620 = experiment: NCI one-dose screen; format: cell-based; details: Homo sapiens; SW-620, 10 µM; read-out: Growth Percent
Method: as §1, §2

TK-10 = experiment: NCI one-dose screen; format: cell-based; details: Homo sapiens; TK-10, 10 µM; read-out: Growth Percent
Method: as §1, §2

U251 = experiment: NCI one-dose screen; format: cell-based; details: Homo sapiens, U-251; U251, 10 µM; read-out: Growth Percent
Method: as §1, §2

UACC-257 = experiment: NCI one-dose screen; format: cell-based; details: Homo sapiens; UACC-257, 10 µM; read-out: Growth Percent
Method: as §1, §2

UACC-62 = experiment: NCI one-dose screen; format: cell-based; details: Homo sapiens; UACC-62, 10 µM; read-out: Growth Percent
Method: as §1, §2

HCT-116 = experiment: NCI one-dose screen; format: cell-based, human; details: HCT-116, 10 µM; for activity at 10 µM: Homo sapiens, read-out: Growth Percent
Method: as §1, §2

RPMI-8226 = experiment: NCI one-dose screen; format: cell-based, human; details: RPMI-8226, 10 µM; for activity at 10 µM: Homo sapiens, read-out: Growth Percent
Method: as §1, §2

[1] = system: 59 human cancer cell lines; experiment: NCI one-dose screen, whole panel; format: cell-based; details: Homo sapiens, mean over the panel, read-out: Mean Growth Percent
Method: as §1, §2

Caco-2 = experiment: MTT assay; format: cell-based; details: Homo sapiens; Caco-2, MTT assay, 24 h incubation
Method: (§3) The proliferation of colorectal cancer cells (HCT116, HT29 and Caco-2) was assessed using MTT assay as previously reported. Cells were treated with increasing concentrations of 1, 5, 10, 20, 40, 80 or 100 µM of CP hybrids 4a-j, doxorubicin, or DMSO. See Supplementary Appendix A.

HCT116 = experiment: MTT assay; format: cell-based; details: Homo sapiens, HCT-116, 24 h incubation
Method: as §3

HT-29 = experiment: MTT assay; format: cell-based; details: Homo sapiens; HT-29, MTT assay, 24 h incubation
Method: as §3

## O=C(/C=C/c1ccccc1)c1ccc(-n2cc(CN3CCN(c4cc5c(cc4F)c(=O)c(C(=O)O)cn5C4CC4)CC3)nn2)cc1 [Compound 4a, (E) 7-(4-((1–(4-Cinnamoylphenyl)-1H-1,2,3-triazol-4-yl)methyl)piperazin-1-yl)-1-cyclopropyl-6-fluoro-4-oxo-1,4-dihydroquinoline-3-carboxylic acid]
786-0
  activity at 10 µM: 87.9%
BT-549
  activity at 10 µM: 102%
CAKI-1
  activity at 10 µM: 87.8%
DU-145
  activity at 10 µM: 104%
EKVX
  activity at 10 µM: 88.5%
HT29
  activity at 10 µM: 90.8%
IGROV1
  activity at 10 µM: 75.3%
K-562
  activity at 10 µM: 101%
KM12
  activity at 10 µM: 84.9%
MDA-MB-231/ATCC
  activity at 10 µM: 97.1%
MOLT-4
  activity at 10 µM: 102%
NCI-H226
  activity at 10 µM: 69.6%
OVCAR-3
  activity at 10 µM: 90.4%
OVCAR-5
  activity at 10 µM: 103%
OVCAR-8
  activity at 10 µM: 95.1%
SF-539
  activity at 10 µM: 92.6%
SK-MEL-28
  activity at 10 µM: 99.3%
SK-MEL-2
  activity at 10 µM: 96.4%
SK-OV-3
  activity at 10 µM: 84.9%
SN12C
  activity at 10 µM: 103%
SNB-19
  activity at 10 µM: 98.2%
SNB-75
  activity at 10 µM: 92.7%
SR
  activity at 10 µM: 99.6%
SW-620
  activity at 10 µM: 90%
TK-10
  activity at 10 µM: 103%
U251
  activity at 10 µM: 98.4%
UACC-257
  activity at 10 µM: 96.7%
UACC-62
  activity at 10 µM: 90.5%
HCT-116
  Growth Percent: -9.74%
  activity at 10 µM: -9.74%
RPMI-8226
  activity at 10 µM: 47.9%
[1]
  activity at 10 µM: 87.8%
Caco-2
  IC50: 8.39 ± 2.46 µM
HCT116
  IC50: 3.57 ± 0.59 µM
HT-29
  IC50: 22.4 ± 3.25 µM

## O=C(/C=C/c1cccc(Cl)c1)c1ccc(-n2cc(CN3CCN(c4cc5c(cc4F)c(=O)c(C(=O)O)cn5C4CC4)CC3)nn2)cc1 [Compound 4b, (E)-7-(4-((1–(4-(3-(3-chlorophenyl)acryloyl)phenyl)-1H-1,2,3-triazol-4-yl)methyl)piperazin-1-yl)-1-cyclopropyl-6-fluoro-4-oxo-1,4-dihydroquinoline-3-carboxylic acid]
786-0
  activity at 10 µM: 53.9%
BT-549
  activity at 10 µM: 90.4%
CAKI-1
  activity at 10 µM: 52.5%
DU-145
  activity at 10 µM: 77.5%
EKVX
  activity at 10 µM: 85%
HT29
  activity at 10 µM: 53.3%
IGROV1
  activity at 10 µM: 51.8%
K-562
  activity at 10 µM: 40.5%
KM12
  activity at 10 µM: 29.9%
MDA-MB-231/ATCC
  activity at 10 µM: 73.6%
MOLT-4
  activity at 10 µM: 68.2%
NCI-H226
  activity at 10 µM: 82.1%
OVCAR-3
  activity at 10 µM: 57.3%
OVCAR-5
  activity at 10 µM: 84.7%
OVCAR-8
  activity at 10 µM: 42.7%
SF-539
  activity at 10 µM: 60.1%
SK-MEL-28
  activity at 10 µM: 95.8%
SK-MEL-2
  activity at 10 µM: 93%
SK-OV-3
  activity at 10 µM: 72.3%
SN12C
  activity at 10 µM: 37.6%
SNB-19
  activity at 10 µM: 53.8%
SNB-75
  activity at 10 µM: 89.2%
SR
  activity at 10 µM: 14.1%
SW-620
  activity at 10 µM: 85.4%
TK-10
  activity at 10 µM: 84.9%
U251
  activity at 10 µM: 34.3%
UACC-257
  activity at 10 µM: 87.7%
UACC-62
  activity at 10 µM: 61.2%
HCT-116
  Growth Percent: -53.36%
  activity at 10 µM: -53.4%
RPMI-8226
  activity at 10 µM: -14.6%
  Growth Percent: -14.59%
[1]
  activity at 10 µM: 65%
Caco-2
  IC50: 24.4 ± 3.07 µM
HCT116
  IC50: 4.81 ± 1.21 µM
HT-29
  IC50: 42.9 ± 5.14 µM

## O=C(/C=C/c1ccc(Cl)cc1)c1ccc(-n2cc(CN3CCN(c4cc5c(cc4F)c(=O)c(C(=O)O)cn5C4CC4)CC3)nn2)cc1 [Compound 4c, (E)-7-(4-((1-(4-(3-(4-chlorophenyl)acryloyl)phenyl)-1H-1,2,3-triazol-4-yl)methyl)piperazin-1-yl)-1-cyclopropyl-6-fluoro-4-oxo-1,4-dihydroquinoline-3-carboxylic acid]
786-0
  activity at 10 µM: 54.2%
BT-549
  activity at 10 µM: 76.7%
CAKI-1
  activity at 10 µM: 61.4%
DU-145
  activity at 10 µM: 76.3%
EKVX
  activity at 10 µM: 94%
HT29
  activity at 10 µM: 79.2%
IGROV1
  activity at 10 µM: 84%
K-562
  activity at 10 µM: 56%
KM12
  activity at 10 µM: 73.7%
MDA-MB-231/ATCC
  activity at 10 µM: 89.4%
MOLT-4
  activity at 10 µM: 84.1%
NCI-H226
  activity at 10 µM: 73%
OVCAR-3
  activity at 10 µM: 91.5%
OVCAR-5
  activity at 10 µM: 92.2%
OVCAR-8
  activity at 10 µM: 62%
SF-539
  activity at 10 µM: 69%
SK-MEL-28
  activity at 10 µM: 88.2%
SK-MEL-2
  activity at 10 µM: 96.8%
SK-OV-3
  activity at 10 µM: 80%
SN12C
  activity at 10 µM: 45.8%
SNB-19
  activity at 10 µM: 72%
SNB-75
  activity at 10 µM: 72.3%
SR
  activity at 10 µM: 24.1%
SW-620
  activity at 10 µM: 83.7%
TK-10
  activity at 10 µM: 83.3%
U251
  activity at 10 µM: 42.1%
UACC-257
  activity at 10 µM: 91%
UACC-62
  activity at 10 µM: 73.8%
HCT-116
  activity at 10 µM: 6.95%
RPMI-8226
  activity at 10 µM: -0.51%
[1]
  activity at 10 µM: 73.9%
Caco-2
  IC50: 11.7 ± 2.95 µM
HCT116
  IC50: 6.45 ± 1.84 µM
HT-29
  IC50: 15.3 ± 1.54 µM
